From patent US12478617B2, “Lipidated peptide inhibitors of interleukin-23 receptor” (JANSSEN BIOTECH, INC., priority 2021, dated 2025) come the findings set out here.

Starred links: 1 amine or outer side, 2 acyl side, 3 side chain; linkers in the order of their positions; H or OH if unused. Positions of bridges follow the written chain, without caps; N, C: chain ends. Non-standard residues stand in square brackets, D forms with d. Residues, ends and D or L forms follow the SMILES beside them. Groups on a side chain read outwards from the residue. *: point of attachment. PEG12 = NCCOCCOCCOCCOCCOCCOCCOCCOCCOCCOCCOCCOCCC(=O)O; Trp(7-Me) = Cc1cccc2c(C[C@H](N)C(=O)O)c[nH]c12; C18 diacid = O=C(O)CCCCCCCCCCCCCCCCC(=O)*; γGlu = O=C(O)[C@H](CCC(=O)[*:2])N[*:1]; 2Nal = N[C@@H](Cc1ccc2ccccc2c1)C(=O)O; Palmitoyl = CCCCCCCCCCCCCCCC(=O)*; 3Pal = N[C@@H](Cc1cccnc1)C(=O)O; PEG4 = NCCOCCOCCOCCOCCC(=O)O; Pen = CC(C)(S)[C@H](N)C(=O)O; αMeK = C[C@](N)(CCCCN)C(=O)O; Thp = NC1(C(=O)O)CCOCC1; Sar = CNCC(=O)O

The target of the assay is IL-23R-expressing DB cells (Homo sapiens, UniProt Q5VWK5). In words: DB Cells IL23R pSTAT3 Cell Assay. Conditions: pSTAT3 (HTRF) in IL-23R-expressing DB cells, 0.5 nM IL-23, 30 minutes; Table 6 'IL-23 Cell Data'. In kind it is cell-based. As for the experimental part: IL-23 is believed to play a central role in supporting and maintaining Th17 differentiation in vivo. This process is thought to be mediated primarily through the Signal Transducer and Activator of Transcription 3 (STAT3), with phosphorylation of STAT3 (to yield pSTAT3) leading to upregulation of RORC and pro-inflammatory IL-17. […] DB cells (ATCC #CRL-2289), cultured in RPMI-1640 medium (Thermo Scientific #11875093) supplemented with 10% FBS, were added at 5 X 10E5 cells/well and incubated for 30 minutes at 37° C. in a 5% CO2 humidified incubator. Changes in phospho-STAT3 levels in the cell lysates were detected using the Cisbio HTRF pSTAT3 (Tyr705) Cellular Assay Kit (Cisbio #62AT3PEH), according to manufacturer's Two Plate Assay protocol. Where not shown or it is marked as “0”, data was not yet determined.
Chain of IL-23R-expressing DB cells (Q5VWK5 24-629 limits assumed): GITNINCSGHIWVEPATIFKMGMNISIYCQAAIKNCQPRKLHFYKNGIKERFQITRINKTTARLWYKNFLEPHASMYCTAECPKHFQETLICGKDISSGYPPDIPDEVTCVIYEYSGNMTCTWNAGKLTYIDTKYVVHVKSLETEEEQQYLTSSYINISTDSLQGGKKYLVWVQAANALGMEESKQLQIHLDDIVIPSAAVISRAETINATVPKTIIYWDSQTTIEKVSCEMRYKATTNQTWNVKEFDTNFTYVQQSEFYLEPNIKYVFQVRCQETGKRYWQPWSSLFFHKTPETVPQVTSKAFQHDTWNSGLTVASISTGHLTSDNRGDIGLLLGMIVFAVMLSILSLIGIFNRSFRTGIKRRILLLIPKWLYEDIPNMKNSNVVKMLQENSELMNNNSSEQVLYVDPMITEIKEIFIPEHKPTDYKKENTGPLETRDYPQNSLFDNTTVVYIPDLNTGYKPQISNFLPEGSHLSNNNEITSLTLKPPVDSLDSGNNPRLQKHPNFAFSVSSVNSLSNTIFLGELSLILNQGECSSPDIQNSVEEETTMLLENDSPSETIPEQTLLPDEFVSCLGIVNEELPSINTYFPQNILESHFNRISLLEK
On to `CCCCCCCCCCCCCCCC(=O)N[C@@H](CCC(=O)NCCOCCOCCOCCOCCOCCOCCOCCOCCOCCOCCOCCOCCC(=O)NCCCC[C@](C)(NC(=O)[C@H](Cc1ccc2ccccc2c1)NC(=O)[C@H](Cc1ccc(OC)cc1)NC(=O)[C@H]1NC(=O)[C@H](CCCCNC(C)=O)NC(=O)[C@H](Cc2c[nH]c3c(C)cccc23)NC(=O)[C@H]([C@@H](C)O)NC(=O)[C@H](C)NC(=O)[C@@H](NC(C)=O)C(C)(C)SSC1(C)C)C(=O)N[C@@H](CCCCNC(C)=O)C(=O)N[C@@H](CC(N)=O)C(=O)N[C@@H](Cc1cccnc1)C(=O)N(C)CC(N)=O)C(=O)O` [Example 226, Ac-[Pen]-A-T-[Trp(7-Me)]-[Lys(Ac)]-[Pen]-[Phe(4-OMe)]-[2Nal]-[aMeLys(PEG12_IsoGlu_Palm)]-[Lys(Ac)]-N-[3Pal]-[Sarc]-NH2] (Ac-[Pen]AT[Trp(7-Me)]K(Ac)[Pen]Y(Me)[2Nal][αMeK]([PEG12-γGlu-Palmitoyl])K(Ac)N[3Pal][Sar]-NH2; disulfide 1-6), for which the IC50 (usually the concentration at which inhibition is half-maximal) turned out to be 0.633 nM.
Take `CCCCCCCCCCCCCCCC(=O)N[C@@H](CCC(=O)NCCOCCOCCOCCOCCOCCOCCOCCOCCOCCOCCOCCOCCC(=O)NCCCC[C@H](NC(=O)C1(NC(=O)[C@H](Cc2ccc3ccccc3c2)NC(=O)[C@H](Cc2ccc(OC)cc2)NC(=O)[C@H]2NC(=O)[C@H](CCCCNC(C)=O)NC(=O)[C@H](Cc3c[nH]c4c(C)cccc34)NC(=O)[C@H]([C@@H](C)O)NC(=O)[C@H](CC(C)C)NC(=O)[C@@H](NC(C)=O)C(C)(C)SSC2(C)C)CCOCC1)C(=O)N[C@@H](CC(C)C)C(=O)N[C@@H](Cc1cccnc1)C(=O)N(C)CC(N)=O)C(=O)O` [Example 243, Ac-[Pen]-L-T-[Trp(7-Me)]-[Lys(Ac)]-[Pen]-[Phe(4-OMe)]-[2Nal]-[THP]-[Lys(PEG12_IsoGlu_Palm)]-L-[3Pal]-[Sarc]-NH2] (Ac-[Pen]LT[Trp(7-Me)]K(Ac)[Pen]Y(Me)[2Nal][Thp]K([PEG12-γGlu-Palmitoyl])L[3Pal][Sar]-NH2; disulfide 1-6): the IC50 was determined as 4.3 nM.
Turning to `COc1ccc(C[C@H](NC(=O)[C@H]2NC(=O)[C@H](CCCCNC(=O)CCOCCOCCOCCOCCNC(=O)CCCCCCCCCCCCCCCCC(=O)O)NC(=O)[C@H](Cc3c[nH]c4c(C)cccc34)NC(=O)[C@H]([C@@H](C)O)NC(=O)[C@H](CC(C)C)NC(=O)[C@@H](NC(C)=O)C(C)(C)SSC2(C)C)C(=O)N[C@@H](Cc2ccc3ccccc3c2)C(=O)NC2(C(=O)N[C@@H](CC(C)C)C(=O)N[C@@H](CC(C)C)C(=O)N[C@@H](Cc3cccnc3)C(=O)N(C)CC(N)=O)CCOCC2)cc1` [Example 262, Ac-[Pen]-L-T-[Trp(7-Me)]-[Lys(PEG4_C18_Diacid)]-[Pen]-[Phe(4-OMe)]-[2Nal]-[THP]-L-L-[3Pal]-[Sarc]-NH2] (Ac-[Pen]LT[Trp(7-Me)]K([PEG4-C18 diacid])[Pen]Y(Me)[2Nal][Thp]LL[3Pal][Sar]-NH2; disulfide 1-6), the IC50 is > 10 nM.
For `COc1ccc(C[C@H](NC(=O)[C@H]2NC(=O)[C@H](CCCCNC(=O)CCOCCOCCOCCOCCOCCOCCOCCOCCOCCOCCOCCOCCNC(=O)CC[C@H](NC(=O)CCCCCCCCCCCCCCCCC(=O)O)C(=O)O)NC(=O)[C@H](Cc3c[nH]c4c(C)cccc34)NC(=O)[C@H]([C@@H](C)O)NC(=O)[C@H](CC(C)C)NC(=O)[C@@H](NC(C)=O)C(C)(C)SSC2(C)C)C(=O)N[C@@H](Cc2ccc3ccccc3c2)C(=O)NC2(C(=O)N[C@@H](CC(C)C)C(=O)N[C@@H](CC(C)C)C(=O)N[C@@H](Cc3cccnc3)C(=O)N(C)CC(N)=O)CCOCC2)cc1` [Example 268, Ac-[Pen]-L-T-[Trp(7-Me)]-[Lys(PEG12_IsoGlu_C18_Diacid)]-[Pen]-[Phe(4-OMe)]-[2Nal]-[THP]-L-L-[3Pal]-[Sarc]-NH2] (Ac-[Pen]LT[Trp(7-Me)]K([PEG12-γGlu-C18 diacid])[Pen]Y(Me)[2Nal][Thp]LL[3Pal][Sar]-NH2; disulfide 1-6), the IC50 was > 10 nM.
